The record followed here is patent US9029359B2, “Heteroaryl Btk inhibitors” (Biogen Idec MA, Inc., priority 2009, dated 2015).

pIC50: −log10 of the molar value.

The test addresses T1, BTK (Homo sapiens, UniProt Q06187).
T1 construct: purchased Upstate 14-552
As to the kind of experiment: In vitro BTK kinase assay: BTK-POLYGAT-LS ASSAY. It counts as biochemical. Particulars: ATP 10 uM. The method, then:
In vitro BTK kinase assay: BTK-POLYGAT-LS ASSAY. The purpose of the BTK in vitro assay is to determine compound potency against BTK through the measurement of IC50. […] A 24 μL aliquot of a ATP/peptide master mix (final concentration; ATP 10 μM, polyGAT 100 nM) in kinase buffer (10 mM Tris-HCl pH 7.5, 10 mM MgCl2, 200 μM Na3VO4, 5 mM DTT, 0.01% Triton X-100, and 0.2 mg/ml Casein) is added to each well. […] The assay is incubated for 30 minutes before being stopped with 28 μL of a 50 mM EDTA solution. […] The plate is covered and incubated for 45 minutes at room temperature. Time resolved fluorescence (TRF) on Molecular Devices M5 (332 nm excitation; 488 nm emission; 518 nm fluorescein emission) is measured.

T1 sequence (Q06187 whole entry): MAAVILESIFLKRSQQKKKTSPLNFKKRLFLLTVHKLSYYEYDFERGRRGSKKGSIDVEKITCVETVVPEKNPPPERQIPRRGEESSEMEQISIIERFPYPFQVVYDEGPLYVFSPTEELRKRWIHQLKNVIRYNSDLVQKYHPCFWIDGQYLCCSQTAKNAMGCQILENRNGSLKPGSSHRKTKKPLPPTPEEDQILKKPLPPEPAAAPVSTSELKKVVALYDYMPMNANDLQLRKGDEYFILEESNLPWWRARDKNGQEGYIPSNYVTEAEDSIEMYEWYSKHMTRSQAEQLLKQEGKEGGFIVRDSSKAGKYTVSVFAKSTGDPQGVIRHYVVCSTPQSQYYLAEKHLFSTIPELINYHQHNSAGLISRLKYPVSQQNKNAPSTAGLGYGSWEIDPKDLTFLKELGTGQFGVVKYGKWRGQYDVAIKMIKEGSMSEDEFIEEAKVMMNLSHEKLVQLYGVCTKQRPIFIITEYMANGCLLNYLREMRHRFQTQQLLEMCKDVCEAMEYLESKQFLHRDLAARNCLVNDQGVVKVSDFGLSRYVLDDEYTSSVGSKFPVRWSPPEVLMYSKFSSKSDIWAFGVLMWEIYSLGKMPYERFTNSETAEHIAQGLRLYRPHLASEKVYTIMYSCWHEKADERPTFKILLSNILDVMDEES

`O=C(CNc1cccc(Cl)c1Cl)NC1CCCN(c2ncnc3[nH]ccc23)C1` (stereo not drawn) [Example 27, (N-(1-(7H-pyrrolo[2,3-d]pyrimidin-4-yl)piperidin-3-yl)-2-(2,3-dichlorophenylamino)acetamide)] showed a pIC50 of 6.00 to 7.00. Regarding `CS(=O)(=O)c1cccc(NCC(=O)NC2CCCN(c3ncnc4[nH]ccc34)C2)c1` (stereo not drawn) [Example 28, (N-(1-(7H-pyrrolo[2,3-d]pyrimidin-4-yl)piperidin-3-yl)-2-(3-(methylsulfonyl)phenylamino)acetamide)], the pIC50 was 5.00 to 6.00. On to `CCc1cccc(CC)c1NCC(=O)NC1CCCN(c2ncnc3[nH]ccc23)C1` (stereo not drawn) [Example 30, (N-(1-(7H-pyrrolo[2,3-d]pyrimidin-4-yl)piperidin-3-yl)-2-(2,6-diethylphenylamino)acetamide)], for which the negative logarithm of the IC50 (pIC50) was 5.00 to 6.00. For the compound `Cc1cccc(NCC(=O)NC2CCCN(c3ncnc4[nH]ccc34)C2)c1` (stereo not drawn) [Example 31, (N-(1-(7H-pyrrolo[2,3-d]pyrimidin-4-yl)piperidin-3-yl)-2-(m-tolylamino)acetamide)], the negative logarithm of the IC50 (pIC50) was 6.00 to 7.00. As for `COc1cccc(NCC(=O)NC2CCCN(c3ncnc4[nH]ccc34)C2)c1` (stereo not drawn) [Example 32, (N-(1-(7H-pyrrolo[2,3-d]pyrimidin-4-yl)piperidin-3-yl)-2-(3-methoxyphenylamino)acetamide)], the figure is 6.00 to 7.00. For `O=C(CNc1ccc(F)cc1)NC1CCCN(c2ncnc3[nH]ccc23)C1` (stereo not drawn) [Example 33, (N-(1-(7H-pyrrolo[2,3-d]pyrimidin-4-yl)piperidin-3-yl)-2-(4-fluorophenylamino)acetamide)], the negative-log IC50 (pIC50) was 5.00 to 6.00.

Compound `O=C(CNc1cc(Cl)ccc1Cl)NC1CCCN(c2ncnc3[nH]ccc23)C1` (stereo not drawn) [Example 35, (N-(1-(7H-pyrrolo[2,3-d]pyrimidin-4-yl)piperidin-3-yl)-2-(2,5-dichlorophenylamino)acetamide)] had a negative-log IC50 (pIC50) of 6.00 to 7.00. With `COc1ccccc1NCC(=O)NC1CCCN(c2ncnc3[nH]ccc23)C1` (stereo not drawn) [Example 37, (N-(1-(7H-pyrrolo[2,3-d]pyrimidin-4-yl)piperidin-3-yl)-2-(2-methoxyphenylamino)acetamide)], the negative-log IC50 (pIC50) was 6.00 to 7.00.

`O=C(CNc1cccc(-c2ccccc2)c1)NC1CCCN(c2ncnc3[nH]ccc23)C1` (stereo not drawn) [Example 39, (N-(1-(7H-pyrrolo[2,3-d]pyrimidin-4-yl)piperidin-3-yl)-2-(biphenyl-3-ylamino-)acetamide)] had a negative-log IC50 (pIC50) greater than 7.00. The value for `O=C(CNc1cccc(Br)c1)NC1CCCN(c2ncnc3[nH]ccc23)C1` (stereo not drawn) [Example 40, (N-(1-(7H-pyrrolo[2,3-d]pyrimidin-4-yl)piperidin-3-yl)-2-(3-bromophenylamino)acetamide)] was greater than 7.00.

Regarding `O=C(CNc1cccc2c1CCCC2)NC1CCCN(c2ncnc3[nH]ccc23)C1` (stereo not drawn) [Example 41, (N-(1-(7H-pyrrolo[2,3-d]pyrimidin-4-yl)piperidin-3-yl)-2-(5,6,7,8-tetrahydronaphthalen-1-ylamino)acetamide)], the pIC50 was greater than 7.00.

For `O=C(CNc1cccc(Oc2ccccc2)c1)NC1CCCN(c2ncnc3[nH]ccc23)C1` (stereo not drawn) [Example 42, (N-(1-(7H-pyrrolo[2,3-d]pyrimidin-4-yl)piperidin-3-yl)-2-(3-phenoxyphenylamino)acetamide)], the negative-log IC50 (pIC50) is 6.00 to 7.00.

In the case of `CN(C)C(=O)c1cccc(NCC(=O)NC2CCCN(c3ncnc4[nH]ccc34)C2)c1` (stereo not drawn) [Example 43, (3-(2-(1-(7H-pyrrolo[2,3-d]pyrimidin-4-yl)piperidin-3-ylamino)-2-oxoethylamino)-N,N-dimethylbenzamide)], the negative-log IC50 (pIC50) was 5.00 to 6.00. `O=C(CNc1cccc2c1CCC2)NC1CCCN(c2ncnc3[nH]ccc23)C1` (stereo not drawn) [Example 45, (N-(1-(7H-pyrrolo[2,3-d]pyrimidin-4-yl)piperidin-3-yl)-2-(2,3-dihydro-1H-inden-4-ylamino)acetamide)]: the pIC50 is greater than 7.00. Regarding `O=C(CNc1cccc2ccccc12)NC1CCCN(c2ncnc3[nH]ccc23)C1` (stereo not drawn) [Example 46, (N-(1-(7H-pyrrolo[2,3-d]pyrimidin-4-yl)piperidin-3-yl)-2-(naphthalen-1-ylamino)acetamide)], the pIC50 was greater than 7.00. In the case of `CC(C)Oc1cccc(NCC(=O)NC2CCCN(c3ncnc4[nH]ccc34)C2)c1` (stereo not drawn) [Example 50, (N-(1-(7H-pyrrolo[2,3-d]pyrimidin-4-yl)piperidin-3-yl)-2-(3-isopropoxyphenylamino)acetamide)], the pIC50 was 5.00 to 6.00. `Cc1c(Cl)cccc1NCC(=O)NC1CCCN(c2ncnc3[nH]ccc23)C1` (stereo not drawn) [Example 52, (N-(1-(7H-pyrrolo[2,3-d]pyrimidin-4-yl)piperidin-3-yl)-2-(3-chloro-2-methylphenylamino)acetamide)] showed a negative-log IC50 (pIC50) of 6.00 to 7.00.

The compound `COc1c(Cl)cccc1NCC(=O)NC1CCCN(c2ncnc3[nH]ccc23)C1` (stereo not drawn) [Example 53, (N-(1-(7H-pyrrolo[2,3-d]pyrimidin-4-yl)piperidin-3-yl)-2-(3-chloro-2-methoxyphenylamino)acetamide)] gave a pIC50 of 6.00 to 7.00. As for `O=C(CNc1cccc2c1CNC2=O)NC1CCCN(c2ncnc3[nH]ccc23)C1` (stereo not drawn) [Example 54, (N-(1-(7H-pyrrolo[2,3-d]pyrimidin-4-yl)piperidin-3-yl)-2-(1-oxoisoindolin-4-ylamino)acetamide)], the pIC50 was less than 5.00. As for `C#Cc1cccc(NCC(=O)NC2CCCN(c3ncnc4[nH]ccc34)C2)c1` (stereo not drawn) [Example 55, (N-(1-(7H-pyrrolo[2,3-d]pyrimidin-4-yl)piperidin-3-yl)-2-(3-ethynylphenylamino)acetamide)], the figure is greater than 7.00; as for `O=C(CNc1cccc(N2CCCC2)c1)NC1CCCN(c2ncnc3[nH]ccc23)C1` (stereo not drawn) [Example 56, (N-(1-(7H-pyrrolo[2,3-d]pyrimidin-4-yl)piperidin-3-yl)-2-(3-(pyrrolidin-1-yl)phenylamino)acetamide)], 6.00 to 7.00; as for `Cn1nc(C(C)(C)C)cc1NCC(=O)NC1CCCN(c2ncnc3[nH]ccc23)C1` (stereo not drawn) [Example 57, (N-(1-(7H-pyrrolo[2,3-d]pyrimidin-4-yl)piperidin-3-yl)-2-(3-ten-butyl-1-methyl-1H-pyrazol-5-ylamino)acetamide)], 5.00 to 6.00. Regarding `Cc1cc(NCC(=O)NC2CCCN(c3ncnc4[nH]ccc34)C2)n(C(C)(C)C)n1` (stereo not drawn) [Example 58, (N-(1-(7H-pyrrolo[2,3-d]pyrimidin-4-yl)piperidin-3-yl)-2-(1-tert-butyl-3-methyl-1H-pyrazol-5-ylamino)acetamide)], the pIC50 was less than 5.00. On to `O=C(CNc1cccnc1)NC1CCCN(c2ncnc3[nH]ccc23)C1` (stereo not drawn) [Example 59, (N-(1-(7H-pyrrolo[2,3-d]pyrimidin-4-yl)piperidin-3-yl)-2-(pyridin-3-ylamino)acetamide)], for which the pIC50 was less than 5.00. As for `Cn1ccc(-c2cccc(NCC(=O)NC3CCCN(c4ncnc5[nH]ccc45)C3)c2)n1` (stereo not drawn) [Example 60], the figure is 5.00 to 6.00. In the case of `CN(C)c1cccc(NCC(=O)NC2CCCN(c3ncnc4[nH]ccc34)C2)c1` (stereo not drawn) [Example 61, (N-(1-(7H-pyrrolo[2,3-d]pyrimidin-4-yl)piperidin-3-yl)-2-(3-(dimethylamino)phenylamino)acetamide)], the pIC50 was 5.00 to 6.00. `O=C(CNc1ccc(F)c(F)c1)NC1CCCN(c2ncnc3[nH]ccc23)C1` (stereo not drawn) [Example 62, (N-(1-(7H-pyrrolo[2,3-d]pyrimidin-4-yl)piperidin-3-yl)-2-(3,4-difluorophenylamino)acetamide)] showed a pIC50 of 6.00 to 7.00.
